Experimental data from ChEMBL document CHEMBL3044672, “N9- and N7-(Chloromethyl Phenymethyl)Chloropurine Derivatives from , '-Dichloroxylenes: Synthesis and Anticancer Activity” (2005).

How the values were obtained:
Format in all cases: functional
HCT-116 = test: Cytotoxicity against Homo sapiens (human) HCT116 cells after 48 hr by sulforhodamine B assay; settings: HCT-116, 48 h; for CC50: read-out: LC50 (the source's name)
OVCAR-3 = test: Cytotoxicity against Homo sapiens (human) OVCAR3 cells after 48 hr by sulforhodamine B assay; settings: OVCAR-3, 48 h
TK-10 = test: Cytotoxicity against Homo sapiens (human) TK10 cells after 48 hr by sulforhodamine B assay; settings: TK-10, 48 h; for CC50: read-out: LC50 (the source's name)
OVCAR-8 = test: Cytotoxicity against Homo sapiens (human) OVCAR8 cells after 48 hr by sulforhodamine B assay; settings: OVCAR-8, 48 h
SK-MEL-2 = test: Cytotoxicity against Homo sapiens (human) SK-MEL-2 cells after 48 hr by sulforhodamine B assay; settings: SK-MEL-2, 48 h
SF-295 = test: Cytotoxicity against Homo sapiens (human) SF295 cells after 48 hr by sulforhodamine B assay; settings: SF-295, 48 h; for CC50: read-out: LC50 (the source's name)
IGROV-1 = test: Cytotoxicity against Homo sapiens (human) IGROV1 cells after 48 hr by sulforhodamine B assay; settings: IGROV-1, 48 h
DU-145 = test: Cytotoxicity against Homo sapiens (human) DU145 cells after 48 hr by sulforhodamine B assay; settings: DU-145, 48 h
OVCAR-4 = test: Cytotoxicity against Homo sapiens (human) OVCAR4 cells after 48 hr by sulforhodamine B assay; settings: OVCAR-4, 48 h
SW-620 = test: Cytotoxicity against Homo sapiens (human) SW620 cells after 48 hr by sulforhodamine B assay; settings: SW-620, 48 h; for CC50: read-out: LC50 (the source's name)
SNB-19 = test: Cytotoxicity against Homo sapiens (human) SNB19 cells after 48 hr by sulforhodamine B assay; settings: SNB-19, 48 h
UACC-257 = test: Cytotoxicity against Homo sapiens (human) UACC257 cells after 48 hr by sulforhodamine B assay; settings: UACC-257, 48 h
EKVX = test: Cytotoxicity against Homo sapiens (human) EKVX cells after 48 hr by sulforhodamine B assay; settings: for CC50: read-out: LC50 (the source's name)
MCF7 = test: Cytotoxicity against Homo sapiens (human) MCF7 cells assessed as cell growth at 10^-4 M after 48 hr by Alamar blue assay; settings: MCF7, 48 h, read-out: Activity
SF-539 = test: Cytotoxicity against Homo sapiens (human) SF539 cells after 48 hr by sulforhodamine B assay; settings: SF-539, 48 h
SK-MEL-5 = test: Cytotoxicity against Homo sapiens (human) SK-MEL-5 cells after 48 hr by sulforhodamine B assay; settings: SK-MEL-5, 48 h
RPMI-8226 = test: Cytotoxicity against Homo sapiens (human) RPMI8226 cells after 48 hr by sulforhodamine B assay; settings: RPMI-8226, 48 h
CAKI-1 = test: Cytotoxicity against Homo sapiens (human) Caki1 cells after 48 hr by sulforhodamine B assay; settings: CAKI-1, 48 h; for CC50: read-out: LC50 (the source's name)
HCC 2998 = test: Cytotoxicity against Homo sapiens (human) HCC2998 cells after 48 hr by sulforhodamine B assay; settings: HCC 2998, 48 h; for CC50: read-out: LC50 (the source's name)
K562 = test: Cytotoxicity against Homo sapiens (human) K562 cells after 48 hr by sulforhodamine B assay; settings: K562, 48 h; for CC50: read-out: LC50 (the source's name)
M14 = test: Cytotoxicity against Homo sapiens (human) M14 cells after 48 hr by sulforhodamine B assay; settings: M14, 48 h
A549 = test: Cytotoxicity against Homo sapiens (human) A549 cells after 48 hr by sulforhodamine B assay; settings: A549, 48 h; for CC50: read-out: LC50 (the source's name)
LOX IMVI = test: Cytotoxicity against Homo sapiens (human) LOXIMVI cells after 48 hr by sulforhodamine B assay
HT-29 = test: Cytotoxicity against Homo sapiens (human) HT-29 cells after 48 hr by sulforhodamine B assay; settings: HT-29, 48 h; for CC50: read-out: LC50 (the source's name)
OVCAR-5 = test: Cytotoxicity against Homo sapiens (human) OVCAR5 cells after 48 hr by sulforhodamine B assay; settings: OVCAR-5, 48 h; for CC50: read-out: LC50 (the source's name)
SNB-75 = test: Cytotoxicity against Homo sapiens (human) SNB75 cells after 48 hr by sulforhodamine B assay; settings: SNB-75, 48 h; for CC50: read-out: LC50 (the source's name)
A498 = test: Cytotoxicity against Homo sapiens (human) A498 cells after 48 hr by sulforhodamine B assay; settings: A498, 48 h

## ClCc1cccc(Cn2cnc3c(Cl)nc(Cl)nc32)c1
HCT-116
  GI50: 1.62 µM
  TGI: 3.09 µM
  CC50: 5.88 µM
OVCAR-3
  GI50: 1.58 µM
  LC50: 6.45 µM
  TGI: 3.23 µM
TK-10
  GI50: 1.73 µM
  TGI: 3.98 µM
  CC50: 8.91 µM
OVCAR-8
  GI50: 1.82 µM
  LC50 (concentration killing 50% of cells): 67.6 µM
  TGI: 3.54 µM
SK-MEL-2
  GI50: 1.99 µM
  LC50 (concentration killing 50% of cells): 10 µM
  TGI: 4.46 µM
SF-295
  GI50: 4.36 µM
  TGI: 17 µM
  CC50: 45.7 µM
IGROV-1
  GI50: 2.29 µM
  LC50: 19.9 µM
  TGI: 5.12 µM
DU-145
  GI50: 1.58 µM
  LC50: 5.62 µM
  TGI: 2.95 µM
OVCAR-4
  GI50: 5.49 µM
  LC50 (concentration killing 50% of cells): 61.7 µM
  TGI: 19.9 µM
SW-620
  GI50: 1.58 µM
  TGI: 3.46 µM
  CC50: 7.76 µM
SNB-19
  GI50: 1.95 µM
  LC50: 8.92 µM
  TGI: 4.16 µM
UACC-257
  GI50: 1.86 µM
  LC50 (concentration killing 50% of cells): 6.45 µM
  TGI: 3.46 µM
EKVX
  GI50: 1.73 µM
  TGI: 2.31 µM
  CC50: 6.45 µM
MCF7
  growth at 100 µM: 0%
SF-539
  GI50: 2.18 µM
  LC50 (concentration killing 50% of cells): 40.7 µM
  TGI: 14.1 µM
SK-MEL-5
  GI50: 1.58 µM
  LC50: 5.88 µM
  TGI: 3.02 µM
RPMI-8226
  GI50: 3.31 µM
  TGI: > 100 µM
RPMI-8226; read-out: LC50 (the source's name)
  CC50: > 100 µM
CAKI-1
  GI50: 2.23 µM
  TGI: 5.88 µM
  CC50: 22.9 µM
HCC 2998
  GI50: 1.62 µM
  TGI: 3.16 µM
  CC50: 6.16 µM
K562
  GI50: 1.58 µM
  TGI: > 100 µM
  CC50: > 100 µM
M14
  GI50: 1.77 µM
  LC50: 6.45 µM
  TGI: 3.38 µM
A549
  GI50: 3.09 µM
  TGI: 10 µM
  CC50: 52.5 µM
LOX IMVI
  GI50: 1.69 µM
  LC50: 6.91 µM
  TGI: 3.38 µM
HT-29
  GI50: 2.39 µM
  TGI: > 100 µM
  CC50: > 100 µM
OVCAR-5
  GI50: 6.45 µM
  TGI: 20.4 µM
  CC50: 47.9 µM
SNB-75
  GI50: 2.04 µM
  TGI: 3.89 µM
  CC50: 7.41 µM
A498
  GI50: 2.39 µM
  LC50 (lethal concentration, 50% cell kill): 27.5 µM
  TGI: 6.6 µM

## ClCc1ccc(Cn2cnc3c(Cl)nc(Cl)nc32)cc1
HCT-116
  GI50: 1.7 µM
  TGI: 3.63 µM
  CC50: 7.59 µM
OVCAR-3
  GI50: 2 µM
  LC50: 9.55 µM
  TGI: 4.37 µM
TK-10
  GI50: 6.61 µM
  TGI: 20.4 µM
  CC50: 44.7 µM
OVCAR-8
  GI50: 19.9 µM
  LC50 (concentration killing 50% of cells): 72.4 µM
  TGI: 38 µM
SK-MEL-2
  GI50: 19.9 µM
  LC50 (concentration killing 50% of cells): 95.5 µM
  TGI: 43.6 µM
SF-295
  GI50: 7.24 µM
  TGI: 19.5 µM
  CC50: 44.7 µM
IGROV-1
  GI50: 15.1 µM
  LC50: 60.3 µM
  TGI: 30.2 µM
DU-145
  GI50: 5.62 µM
  LC50: 42.7 µM
  TGI: 17.8 µM
OVCAR-4
  GI50: 4.9 µM
  LC50 (concentration killing 50% of cells): 61.7 µM
  TGI: 18.6 µM
SW-620
  GI50: 3.8 µM
  TGI: 17.4 µM
  CC50: 56.2 µM
SNB-19
  GI50: 2.51 µM
  LC50: > 100 µM
  TGI: 7.08 µM
UACC-257
  GI50: 16.2 µM
  LC50 (concentration killing 50% of cells): 69.2 µM
  TGI: 33.1 µM
EKVX
  GI50: 17.4 µM
  TGI: 31.6 µM
  CC50: 58.9 µM
MCF7
  growth at 100 µM: 0%
SF-539
  GI50: 17 µM
  LC50 (concentration killing 50% of cells): 56.2 µM
  TGI: 30.9 µM
SK-MEL-5
  GI50: 6.46 µM
  LC50: 44.7 µM
  TGI: 19.1 µM
RPMI-8226
  GI50: 1.74 µM
  TGI: 3.8 µM
CAKI-1
  GI50: 9.12 µM
  TGI: 21.4 µM
  CC50: 46.8 µM
HCC 2998
  GI50: 10.2 µM
  TGI: 24 µM
  CC50: 56.2 µM
K562
  GI50: 23.4 µM
  TGI: 66.1 µM
  CC50: > 100 µM
M14
  GI50: 10.7 µM
  LC50: 53.7 µM
  TGI: 24 µM
A549
  GI50: 18.6 µM
  TGI: 37.1 µM
  CC50: 74.1 µM
LOX IMVI
  GI50: 2.04 µM
  LC50: 8.32 µM
  TGI: 4.17 µM
HT-29
  GI50: 2.88 µM
  TGI: > 100 µM
  CC50: > 100 µM
OVCAR-5
  GI50: 18.2 µM
  TGI: 34.7 µM
  CC50: 66.1 µM
SNB-75
  GI50: 3.16 µM
  TGI: 9.33 µM
  CC50: 45.7 µM
A498
  GI50: 12 µM
  LC50 (lethal concentration, 50% cell kill): 52.5 µM
  TGI: 25.1 µM
